Target: RbgA (Staphylococcus aureus, UniProt A0A0H2XK72)
Experiment: GTPase activity assay of wild-type and Atto488-labeled RbgA
Format: biochemical
Details: 100 μM ppGpp, 1 μM GTP, 0.1 μM RA-GTPase, 0.1 μM 70S ribosomes, 37°C, 60 min
From the text: To gain further insight into the binding mechanism and how (p)ppGpp reduces the association of RA-GTPases to the ribosomal subunits, we used a stopped-flow technique with fluorescent derivatives of the RA-GTPases (Fig. 3A). Structural predictions of all four RA-GTPases were built by homology modeling using available structures to assess the availability of suitable residues for fluorescence labeling (see Fig. S3A and B) ([43]). Both RbgA and HflX were amenable to covalent linkage to the fluorophore Atto-488 using maleimide chemistry with exposed cysteine residues. […]
Supplementary file : FIG S3 Labeling sites and GTPase activity of Atto488-labelled proteins. […] Enzymatic activity was monitored by TLC and quantified by using ImageQuant. […]
GTPase activity assays were performed as previously described ([10]). Briefly, the ability of proteins to hydrolyze GTP was determined by incubating 100 nM recombinant protein with 100 nM S. aureus 70S ribosomes, 1 μM GTP and 2.78 nM [α-^32P]GTP in 40 mM Tris (pH 7.5), 100 mM NaCl (100 mM KCl for RbgA), and 10 mM MgCl2 at 37°C for the indicated times. […] The radioactive spots were exposed to a BAS-MS imaging plate (Fujifilm) and visualized using an LA 7000 Typhoon PhosphorImager (GE Healthcare), and images were quantified using ImageQuant (GE Healthcare).

Sequence of RbgA (A0A0H2XK72 entry or part of it): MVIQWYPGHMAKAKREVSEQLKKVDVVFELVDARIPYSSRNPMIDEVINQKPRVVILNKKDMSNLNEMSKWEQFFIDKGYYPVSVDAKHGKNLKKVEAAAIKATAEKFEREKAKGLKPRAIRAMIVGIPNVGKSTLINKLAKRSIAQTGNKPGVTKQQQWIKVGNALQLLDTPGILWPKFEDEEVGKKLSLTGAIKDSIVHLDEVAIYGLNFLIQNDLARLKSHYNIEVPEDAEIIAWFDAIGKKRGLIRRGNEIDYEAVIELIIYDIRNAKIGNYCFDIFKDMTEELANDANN

Nc1nc2c(ncn2[C@@H]2O[C@H](COP(=O)(O)OP(=O)(O)O)[C@@H](OP(=O)(O)OP(=O)(O)O)[C@H]2O)c(=O)[nH]1 [ppGpp]
inhibition of GTPase activity of Atto488-labeled RbgA: can still be inhibited
